Assay results taken from the supplement of paper PMC10307832.

What was measured:
Assay in all cases: relative viability (nuclei count vs DMSO), 5 days (fraction); higher = more cells survive
[1] = compound: C1=CC2=NC=CN=C2C=C1/C=C/3\C(=O)NC(=O)S3 + Cc1cc(Nc2cc(N3CCN(C)CC3)nc(Sc3ccc(NC(=O)C4CC4)cc3)n2)n[nH]1 [Tozasertib] (partner 0.1 µM)
Procedure, shortened: (§1)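 Relative viability equals treated-well nuclei counts divided by vehicle-well nuclei counts. Counts came from 4× images of lung cancer cell lines grown in 1536-well plates for 5 days after pin-tool dosing on the day after seeding. Dosing used one drug alone or a fixed anchor-drug dose plus five library-drug doses (not always all listed) in √10 steps, and values are medians of duplicate plates.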

BGJ398 + OSI-027 = compound: CCN1CCN(c2ccc(Nc3cc(N(C)C(=O)Nc4c(Cl)c(OC)cc(OC)c4Cl)ncn3)cc2)CC1 [BGJ398] + COc1cccc2cc(-c3nc([C@H]4CC[C@H](C(=O)O)CC4)n4ncnc(N)c34)[nH]c12 [OSI-027] (partner 0.5 µM)
Procedure, shortened: as §1

BGJ398 + Dasatinib = compound: CCN1CCN(c2ccc(Nc3cc(N(C)C(=O)Nc4c(Cl)c(OC)cc(OC)c4Cl)ncn3)cc2)CC1 [BGJ398] + Cc1nc(Nc2ncc(C(=O)Nc3c(C)cccc3Cl)s2)cc(N2CCN(CCO)CC2)n1 [Dasatinib] (partner 0.075 µM)
Procedure, shortened: as §1

BGJ398 + Pemetrexed = compound: CCN1CCN(c2ccc(Nc3cc(N(C)C(=O)Nc4c(Cl)c(OC)cc(OC)c4Cl)ncn3)cc2)CC1 [BGJ398] + Nc1nc2[nH]cc(CCc3ccc(C(=O)N[C@@H](CCC(=O)O)C(=O)O)cc3)c2c(=O)[nH]1 [Pemetrexed] (partner 0.2 µM)
Procedure, shortened: as §1

UMC-11
relative viability ([1]; first compound 0.02 µM): 0.205 | relative viability ([1]; first compound 0.06325 µM): 0.193 | relative viability ([1]; first compound 0.2 µM): 0.202 | relative viability ([1]; first compound 0.6325 µM): 0.203 | relative viability ([1]; first compound 2 µM): 0.192 | relative viability (BGJ398 + OSI-027; first compound 0.01 µM): 0.494 | relative viability (BGJ398 + OSI-027; first compound 0.03162 µM): 0.449 | relative viability (BGJ398 + OSI-027; first compound 0.1 µM): 0.53 | relative viability (BGJ398 + OSI-027; first compound 0.3162 µM): 0.411 | relative viability (BGJ398 + OSI-027; first compound 1 µM): 0.429 | relative viability (BGJ398 + Dasatinib; first compound 0.01 µM): 0.463 | relative viability (BGJ398 + Dasatinib; first compound 0.03162 µM): 0.465 | relative viability (BGJ398 + Dasatinib; first compound 0.1 µM): 0.51 | relative viability (BGJ398 + Dasatinib; first compound 0.3162 µM): 0.454 | relative viability (BGJ398 + Dasatinib; first compound 1 µM): 0.443 | relative viability (BGJ398 + Pemetrexed; first compound 0.01 µM): 0.799 | relative viability (BGJ398 + Pemetrexed; first compound 0.03162 µM): 0.747 | relative viability (BGJ398 + Pemetrexed; first compound 0.1 µM): 0.854 | relative viability (BGJ398 + Pemetrexed; first compound 0.3162 µM): 0.814 | relative viability (BGJ398 + Pemetrexed; first compound 1 µM): 0.758
